Format in all cases: biochemical
Common to all, as to conditions: 1 μM inhibitor concentration

Assay [1] concerns the target MINK1 (Homo sapiens (Human), UniProt Q8N4C8). Nature of the assay: MINK1 kinase selectivity assay. How it is done: MINK1 (5-20 mU diluted in 50 mM Tris pH 7.5, 0.1 mM EGTA, 0.1% β-mercaptoethanol, 1 mg/ml BSA) is assayed against MBP in a final volume of 25.5 μl containing 50 mM Tris pH 7.5, 0.1 mM EGTA, 0.33 mg/ml MBP, 10 mM magnesium acetate and 0.05 mM [33P-γ-ATP] (50-1000 cpm/pmole) and incubated for 30 min at room temperature. Assays are stopped by addition of 5 μl of 0.5 M (3%) orthophosphoric acid and then harvested onto P81 Unifilter plates with a wash buffer of 50 mM orthophosphoric acid.

Assay [2] addresses MARK3 (Homo sapiens (Human), UniProt P27448). Nature of the assay: MARK3 kinase selectivity assay. On the procedure: MARK3 (5-20 mU diluted in 50 mM Tris pH 7.5, 0.1 mM EGTA, 0.1% b-mercaptoethanol, 1 mg/ml BSA) is assayed against CHKtide substrate ([…]) in a final volume of 25.5 μl containing 50 mM Tris pH 7.5, 0.05% b-mercaptoethanol, 300 μM substrate peptide, 10 mM magnesium acetate and 0.005 mM [33P-g-ATP](50-1000 cpm/pmole) and incubated for 30 min at room temperature. Assays are stopped by addition of 5 μl of 0.5 M (3%) orthophosphoric acid and then harvested onto P81 Unifilter plates with a wash buffer of 50 mM orthophosphoric acid.

For assay [3], the target named is Src (Homo sapiens (Human), UniProt P12931). Description: Src kinase selectivity assay. How it is done:
Src (5-20 mU diluted in 50 mM Tris pH 7.5, 0.1 mM EGTA, 0.1% b-mercaptoethanol, 1 mg/ml BSA) is assayed against a substrate peptide ([…]) in a final volume of 25.5 μl containing 50 mM Tris pH 7.5, 0.05% b-mercaptoethanol, 300 μM substrate peptide, 10 mM magnesium acetate and 0.05 mM [33P-g-ATP] (50-1000 cpm/pmole) and incubated for 30 min at room temperature. Assays are stopped by addition of 5 μl of 0.5 M (3%) orthophosphoric acid and then harvested onto P81 Unifilter plates with a wash buffer of 50 mM orthophosphoric acid.

The target in assay [4] is PRAK (Homo sapiens (Human), UniProt Q8IW41). Description: PRAK kinase selectivity assay. On the procedure: PRAK (5-20 mU diluted in 50 mM Na-b-glycerophosphate pH 7.5, 0.1 mM EGTA, 0.1% b-mercaptoethanol, 1 mg/ml BSA) is assayed against […] in a final volume of 25.5 μl containing 50 mM Na-b-glycerophosphate pH 7.5, 0.1 mM EGTA, 30 μM substrate peptide, 10 mM magnesium acetate and 0.02 mM [33P-g-ATP] (50-1000 cpm/pmole) and incubated for 30 min at room temperature. Assays are stopped by addition of 5 μl of 0.5 M (3%) orthophosphoric acid and then harvested onto P81 Unifilter plates with a wash buffer of 50 mM orthophosphoric acid.
Sequence of PRAK (Q8IW41 whole entry, species assumed): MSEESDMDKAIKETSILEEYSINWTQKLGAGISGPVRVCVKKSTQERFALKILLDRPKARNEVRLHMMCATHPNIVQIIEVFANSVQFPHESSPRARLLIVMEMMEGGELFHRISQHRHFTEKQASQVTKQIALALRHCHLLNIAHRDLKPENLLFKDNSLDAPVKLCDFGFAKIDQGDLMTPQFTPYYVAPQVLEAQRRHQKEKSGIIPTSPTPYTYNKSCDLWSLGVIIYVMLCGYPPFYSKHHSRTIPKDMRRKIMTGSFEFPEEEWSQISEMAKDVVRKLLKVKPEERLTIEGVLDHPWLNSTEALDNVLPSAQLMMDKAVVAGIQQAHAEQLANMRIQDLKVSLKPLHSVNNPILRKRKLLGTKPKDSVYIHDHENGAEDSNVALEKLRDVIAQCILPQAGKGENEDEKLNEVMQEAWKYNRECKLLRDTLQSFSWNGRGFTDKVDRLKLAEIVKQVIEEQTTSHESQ

The target in assay [5] is TrkA (Homo sapiens (Human), UniProt P04629). Nature of the assay: TrkA kinase selectivity assay. On the procedure: TrkA (5-20 mU diluted in 50 mM Tris pH 7.5, 0.1 mM EGTA, 10 mM MnCl, 1 mg/ml BSA) is assayed against a substrate peptide (Poly Glut Tyr) in a final volume of 25.5 μl containing 50 mM Tris pH 7.5, 0.1 mM EGTA, 1 mg/ml substrate peptide, 10 mM magnesium acetate and 0.02 mM [33P-γ-ATP] (50-1000 cpm/pmole) and incubated for 30 min at room temperature. Assays are stopped by addition of 5 μl of 0.5 M (3%) orthophosphoric acid and then harvested onto P81 Unifilter plates with a wash buffer of 50 mM orthophosphoric acid.
Sequence of TrkA (P04629 33-796, species assumed): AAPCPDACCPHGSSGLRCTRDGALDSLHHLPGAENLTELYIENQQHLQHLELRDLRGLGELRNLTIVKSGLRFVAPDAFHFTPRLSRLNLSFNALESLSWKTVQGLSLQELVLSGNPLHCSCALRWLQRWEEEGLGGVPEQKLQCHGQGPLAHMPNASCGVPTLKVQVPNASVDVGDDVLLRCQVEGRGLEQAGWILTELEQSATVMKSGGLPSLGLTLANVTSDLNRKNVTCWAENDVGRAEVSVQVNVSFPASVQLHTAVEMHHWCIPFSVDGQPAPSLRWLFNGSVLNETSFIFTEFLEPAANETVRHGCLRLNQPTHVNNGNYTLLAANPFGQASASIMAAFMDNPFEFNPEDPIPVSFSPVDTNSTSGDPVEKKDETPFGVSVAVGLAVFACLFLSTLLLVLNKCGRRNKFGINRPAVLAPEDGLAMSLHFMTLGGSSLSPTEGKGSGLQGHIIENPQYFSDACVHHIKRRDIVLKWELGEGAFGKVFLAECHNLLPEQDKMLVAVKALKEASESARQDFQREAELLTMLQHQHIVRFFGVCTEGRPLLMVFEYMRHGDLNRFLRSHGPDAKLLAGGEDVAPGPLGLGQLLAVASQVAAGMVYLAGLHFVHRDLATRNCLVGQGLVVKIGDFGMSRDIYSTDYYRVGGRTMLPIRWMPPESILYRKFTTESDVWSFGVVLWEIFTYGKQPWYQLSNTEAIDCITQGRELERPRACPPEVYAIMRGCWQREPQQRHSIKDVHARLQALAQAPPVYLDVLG

In assay [6] the target is PKBb (Homo sapiens (Human), UniProt P31751, S474D). Nature of the assay: PKBb kinase selectivity assay. How it is done:
ΔPH-PKBbeta-S474D (5-20 mU diluted in 50 mM Tris pH 7.5, 0.1 mM EGTA, 0.1% b-mercaptoethanol, 1 mg/ml BSA) is assayed against a modified Crosstide peptide ([…]) in a final volume of 25.5 μl containing 50 mM Tris pH 7.5, 0.05% b-mercaptoethanol, 30 μM substrate peptide, 10 mM magnesium acetate and 0.05 mM [33P-g-ATP](50-1000 cpm/pmole) and incubated for 30 min at room temperature. Assays are stopped by addition of 5 μl of 0.5 M (3%) orthophosphoric acid and then harvested onto P81 Unifilter plates with a wash buffer of 50 mM orthophosphoric acid.

For assay [7], the target named is HER4 (Homo sapiens (Human), UniProt Q15303). Description: HER4 kinase selectivity assay. On the procedure:
HER4 (5-20 mU diluted in 50 mM Tris pH 7.5, 0.1 mM EGTA, 0.1% β-mercaptoethanol, 1 mg/ml BSA) is assayed against Poly Glut Tyr in a final volume of […] containing 50 mM Tris pH 7.5, 0.1 mM EGTA, 1 mg/ml Poly Glut Tyr, 10 mM magnesium acetate and 0.005 mM [33P-γ-ATP] (50-1000 cpm/pmole) and incubated for 30 min at room temperature. Assays are stopped by addition of 5 μl of 0.5 M (3%) orthophosphoric acid and then harvested onto P81 Unifilter plates with a wash buffer of 50 mM orthophosphoric acid.

Assay [8] has as its target ROCK2 (Homo sapiens (Human), UniProt O75116). Nature of the assay: ROCK2 kinase selectivity assay. On the procedure: ROCK-II (ROKa) (5-20 mU diluted in 50 mM Tris pH 7.5, 0.1 mM EGTA, 0.1% b-mercaptoethanol, 1 mg/ml BSA) is assayed against Long S6 substrate peptide ([…]) in a final volume of 25.5 μl containing 50 mM Tris pH 7.5, 0.1 mM EGTA, 30 μM Long S6 substrate peptide, 10 mM magnesium acetate and 0.02 mM [33P-g-ATP] (50-1000 cpm/pmole) and incubated for 30 min at room temperature. Assays are stopped by addition of 5 μl of 0.5 M (3%) orthophosphoric acid and then harvested onto P81 Unifilter plates with a wash buffer of 50 mM orthophosphoric acid.

Sequence of MARK3 (P27448 whole entry, species assumed): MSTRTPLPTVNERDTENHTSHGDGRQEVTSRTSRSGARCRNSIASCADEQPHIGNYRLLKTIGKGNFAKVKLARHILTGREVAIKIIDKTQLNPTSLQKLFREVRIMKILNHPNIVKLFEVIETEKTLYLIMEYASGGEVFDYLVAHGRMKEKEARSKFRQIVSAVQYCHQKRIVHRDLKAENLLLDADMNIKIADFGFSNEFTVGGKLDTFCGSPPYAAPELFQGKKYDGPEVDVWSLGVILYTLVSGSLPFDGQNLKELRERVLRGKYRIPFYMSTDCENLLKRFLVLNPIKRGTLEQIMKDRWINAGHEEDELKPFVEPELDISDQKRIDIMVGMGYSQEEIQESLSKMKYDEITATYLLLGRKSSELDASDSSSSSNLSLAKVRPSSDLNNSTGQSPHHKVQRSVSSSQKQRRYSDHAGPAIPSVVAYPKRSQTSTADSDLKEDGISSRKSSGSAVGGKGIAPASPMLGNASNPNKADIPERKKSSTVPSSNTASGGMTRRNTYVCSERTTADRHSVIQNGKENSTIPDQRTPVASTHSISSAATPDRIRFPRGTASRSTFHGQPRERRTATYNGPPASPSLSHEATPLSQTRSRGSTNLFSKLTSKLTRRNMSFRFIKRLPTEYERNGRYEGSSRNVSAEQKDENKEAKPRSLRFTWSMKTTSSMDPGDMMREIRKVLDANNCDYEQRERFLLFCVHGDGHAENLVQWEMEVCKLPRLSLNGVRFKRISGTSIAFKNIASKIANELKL
Sequence of Src (P12931 whole entry, looked up, species assumed): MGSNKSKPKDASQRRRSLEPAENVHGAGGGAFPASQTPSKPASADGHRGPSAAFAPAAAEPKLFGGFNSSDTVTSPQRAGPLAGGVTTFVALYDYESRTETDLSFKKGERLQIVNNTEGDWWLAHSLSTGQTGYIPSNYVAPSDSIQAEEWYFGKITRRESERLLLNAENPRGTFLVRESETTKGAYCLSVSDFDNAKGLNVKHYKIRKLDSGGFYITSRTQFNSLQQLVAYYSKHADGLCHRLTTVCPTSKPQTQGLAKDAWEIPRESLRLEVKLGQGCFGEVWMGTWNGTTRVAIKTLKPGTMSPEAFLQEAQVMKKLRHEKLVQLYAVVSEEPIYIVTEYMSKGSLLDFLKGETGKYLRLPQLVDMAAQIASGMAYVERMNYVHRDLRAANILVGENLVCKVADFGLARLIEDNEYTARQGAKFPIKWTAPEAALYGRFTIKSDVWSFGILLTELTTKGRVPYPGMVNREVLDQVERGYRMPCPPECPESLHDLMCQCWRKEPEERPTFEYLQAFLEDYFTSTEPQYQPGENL
Sequence of MINK1 (Q8N4C8 whole entry, species assumed): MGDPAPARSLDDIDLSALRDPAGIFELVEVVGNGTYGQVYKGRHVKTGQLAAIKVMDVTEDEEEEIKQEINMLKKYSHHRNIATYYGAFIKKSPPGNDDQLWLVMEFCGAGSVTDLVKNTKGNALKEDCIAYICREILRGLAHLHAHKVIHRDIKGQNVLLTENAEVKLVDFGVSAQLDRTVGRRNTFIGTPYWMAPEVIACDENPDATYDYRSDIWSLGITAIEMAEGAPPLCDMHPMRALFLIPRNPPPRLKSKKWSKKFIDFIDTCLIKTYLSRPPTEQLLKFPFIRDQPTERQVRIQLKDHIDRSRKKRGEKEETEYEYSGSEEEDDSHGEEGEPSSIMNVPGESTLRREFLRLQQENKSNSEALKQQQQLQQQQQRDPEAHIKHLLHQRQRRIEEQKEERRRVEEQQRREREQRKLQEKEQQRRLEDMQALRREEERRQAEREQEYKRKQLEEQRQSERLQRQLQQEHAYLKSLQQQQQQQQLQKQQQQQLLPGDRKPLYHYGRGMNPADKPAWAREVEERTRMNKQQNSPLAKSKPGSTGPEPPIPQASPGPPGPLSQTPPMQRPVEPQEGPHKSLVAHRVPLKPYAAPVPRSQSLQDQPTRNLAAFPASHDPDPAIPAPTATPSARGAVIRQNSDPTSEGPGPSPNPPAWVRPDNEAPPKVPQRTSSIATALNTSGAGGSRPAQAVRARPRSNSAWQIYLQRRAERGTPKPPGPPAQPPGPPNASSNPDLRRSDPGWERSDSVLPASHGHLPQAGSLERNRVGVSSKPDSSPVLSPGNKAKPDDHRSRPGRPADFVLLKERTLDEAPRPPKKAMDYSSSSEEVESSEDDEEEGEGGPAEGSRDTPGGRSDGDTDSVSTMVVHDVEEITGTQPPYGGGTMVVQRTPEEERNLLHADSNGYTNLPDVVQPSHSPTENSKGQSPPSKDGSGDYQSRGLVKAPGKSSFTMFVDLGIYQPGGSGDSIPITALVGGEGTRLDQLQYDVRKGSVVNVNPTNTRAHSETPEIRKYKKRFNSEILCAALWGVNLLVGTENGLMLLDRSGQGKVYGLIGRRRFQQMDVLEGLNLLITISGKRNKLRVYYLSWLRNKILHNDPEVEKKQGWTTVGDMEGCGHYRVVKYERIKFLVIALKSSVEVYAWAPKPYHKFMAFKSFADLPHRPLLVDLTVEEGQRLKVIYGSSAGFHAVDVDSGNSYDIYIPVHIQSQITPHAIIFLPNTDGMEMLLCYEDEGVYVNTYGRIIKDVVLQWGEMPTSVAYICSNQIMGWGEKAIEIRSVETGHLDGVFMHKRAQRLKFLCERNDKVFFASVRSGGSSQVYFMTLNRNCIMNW
Sequence of PKBb (P31751 120-481 S474D): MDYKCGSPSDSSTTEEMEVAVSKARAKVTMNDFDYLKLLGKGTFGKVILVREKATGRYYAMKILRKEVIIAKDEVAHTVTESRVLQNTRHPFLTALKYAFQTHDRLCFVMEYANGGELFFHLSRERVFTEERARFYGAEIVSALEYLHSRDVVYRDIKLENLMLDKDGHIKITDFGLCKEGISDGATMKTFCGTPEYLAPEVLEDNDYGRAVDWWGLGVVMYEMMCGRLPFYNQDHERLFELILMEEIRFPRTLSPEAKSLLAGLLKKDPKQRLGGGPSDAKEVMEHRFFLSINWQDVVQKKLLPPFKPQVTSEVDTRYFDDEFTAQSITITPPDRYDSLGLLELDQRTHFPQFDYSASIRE

Regarding `c1cc2[nH]nc3c2c(n1)N(C1CCC1)CCC3` [Example 22, 6-cyclobutyl-6,7,8,9-tetrahydro-2H-1,2,5,6-tetraazabenzo[cd]azulene], the “percentage inhibition of MINK1” value in assay [1] was 0 percentage. Also, in assay [2], the “percentage inhibition of MARK3” value turned out to be 1 percentage. In addition, the “percentage inhibition of Src” value in assay [3] is 13 percentage. The “percentage inhibition of PRAK” value in assay [4] was found to be 0 percentage. Further, in assay [5], the “percentage inhibition of TrkA” value worked out at 0 percentage. In assay [6], the “percentage inhibition of PKBb” value amounted to 0 percentage. The “percentage inhibition of HER4” value in assay [7] is 8 percentage. For the same compound, the “percentage inhibition of ROCK2” value in assay [8] is given as 5 percentage.

For `c1cc2[nH]nc3c2c(n1)N(C1CCCC1)CCC3` [Example 23, 6-cyclopentyl-6,7,8,9-tetrahydro-2H-1,2,5,6-tetraazabenzo[cd]azulene], in assay [1], the “percentage inhibition of MINK1” value stood at 0 percentage. Besides, the “percentage inhibition of MARK3” value in assay [2] is listed as 0 percentage. Besides, the “percentage inhibition of Src” value in assay [3] came to 0 percentage. Further, the “percentage inhibition of PRAK” value in assay [4] turned out to be 0 percentage. Also, in assay [5], the “percentage inhibition of TrkA” value is reported as 0 percentage. In addition, the “percentage inhibition of PKBb” value in assay [6] is 0 percentage. For the same compound, the “percentage inhibition of HER4” value in assay [7] stood at 3 percentage. In addition, the “percentage inhibition of ROCK2” value in assay [8] is given as 0 percentage.

As to `c1cc2[nH]nc3c2c(n1)N(C1CCOCC1)CCC3` [Example 29, 6-(tetrahydro-2H-pyran-4-yl)-6,7,8,9-tetrahydro-2H-1,2,5,6-tetraazabenzo[cd]azulene], in assay [1], the “percentage inhibition of MINK1” value is given as 0 percentage. The “percentage inhibition of MARK3” value in assay [2] is 13 percentage. In addition, in assay [3], the “percentage inhibition of Src” value came to 0 percentage. The “percentage inhibition of PRAK” value in assay [4] is reported as 0 percentage. Also, the “percentage inhibition of TrkA” value in assay [5] was 20 percentage. For the same compound, the “percentage inhibition of PKBb” value in assay [6] worked out at 0 percentage. For the same compound, the “percentage inhibition of HER4” value in assay [7] is reported as 10 percentage. Moreover, the “percentage inhibition of ROCK2” value in assay [8] is reported as 11 percentage.

As for `CN1CCC(N2Cc3ccccc3-c3n[nH]c4ccnc2c34)CC1` [Example 55], the “percentage inhibition of MINK1” value in assay [1] worked out at 12 percentage. Also, the “percentage inhibition of MARK3” value in assay [2] came to 47 percentage. Moreover, the “percentage inhibition of Src” value in assay [3] came out at 1 percentage. The “percentage inhibition of PRAK” value in assay [4] is on record as 18 percentage. In addition, the “percentage inhibition of TrkA” value in assay [5] is reported as 5 percentage. Also, the “percentage inhibition of PKBb” value in assay [6] amounted to 10 percentage. For the same compound, in assay [7], the “percentage inhibition of HER4” value is given as 0 percentage. For the same compound, the “percentage inhibition of ROCK2” value in assay [8] was 14 percentage.

Consider `CC(C)n1ncc2c1CN(C1CCN(C)CC1)c1nccc3[nH]nc-2c13` [Example 68], for which, in assay [1], the “percentage inhibition of MINK1” value is 7 percentage. The “percentage inhibition of MARK3” value in assay [2] worked out at 43 percentage. The “percentage inhibition of Src” value in assay [3] is reported as 0 percentage. In addition, the “percentage inhibition of PRAK” value in assay [4] turned out to be 13 percentage. Also, the “percentage inhibition of TrkA” value in assay [5] came to 9 percentage. Also, the “percentage inhibition of PKBb” value in assay [6] is 9 percentage. Besides, in assay [7], the “percentage inhibition of HER4” value is recorded as 1 percentage. For the same compound, the “percentage inhibition of ROCK2” value in assay [8] came out at 21 percentage.
